Data published in PubChem BioAssay (NCI).
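Test compounds were applied to cells in 96-well plates for 48 hours at 5 doses. GI50 marks 50% less growth. At the TGI there is no net growth.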

Legend:
Assay in all cases: inhibition of tumour cell growth, NCI panel, 48 h; in the data active = GI50 below about 0.43 µM; inactive = the rest
[1] = system: 786-0 renal
[2] = system: A498 renal
[3] = system: A549 NSCLC
[4] = system: ACHN renal
[5] = system: BT-549 breast
[6] = system: CAKI-1 renal
[7] = system: CCRF-CEM leukemia
[8] = system: COLO 205 colon
[9] = system: DU-145 prostate
[10] = system: EKVX NSCLC
[11] = system: HCT-116 colon
[12] = system: HCT-15 colon
[13] = system: HL-60(TB) leukemia
[14] = system: HOP-62 NSCLC
[15] = system: HOP-92 NSCLC
[16] = system: HS 578T breast
[17] = system: HT29 colon
[18] = system: IGROV1 ovarian
[19] = system: K-562 leukemia
[20] = system: KM12 colon
[21] = system: LOX IMVI melanoma
[22] = system: M14 melanoma
[23] = system: MALME-3M melanoma
[24] = system: MCF7 breast
[25] = system: MDA-MB-231 breast
[26] = system: MDA-MB-435
[27] = system: MOLT-4 leukemia
[28] = system: NCI-H226 lung
[29] = system: NCI-H23 lung
[30] = system: NCI-H460 lung
[31] = system: NCI-H522 lung
[32] = system: NCI/ADR-RES ovarian
[33] = system: OVCAR-3 ovarian
[34] = system: OVCAR-4 ovarian
[35] = system: OVCAR-5 ovarian
[36] = system: OVCAR-8 ovarian
[37] = system: PC-3 prostate
[38] = system: RPMI-8226 leukemia
[39] = system: RXF 393 renal
[40] = system: SF-268 CNS
[41] = system: SF-295 CNS
[42] = system: SF-539 CNS
[43] = system: SK-MEL-2 melanoma
[44] = system: SK-MEL-28 melanoma
[45] = system: SK-MEL-5 melanoma
[46] = system: SK-OV-3 ovarian
[47] = system: SN12C renal
[48] = system: SNB-19 CNS
[49] = system: SNB-75 CNS
[50] = system: SR leukemia
[51] = system: SW-620 colon
[52] = system: T-47D breast
[53] = system: TK-10 renal
[54] = system: U251 CNS
[55] = system: UACC-257 melanoma
[56] = system: UACC-62 melanoma
[57] = system: UO-31 renal
[58] = system: HCC-2998 colon
[59] = system: MDA-N

COc1ccc(N=c2nc3sc4cc(Cl)ccc4n3c(N)c2C#N)cc1
> 76.5 µM: TGI [27]
6.47 µM: TGI [8]
44.8 µM: TGI [33]
21.5 µM: TGI [24]
5.07 µM: TGI [21]
7.42 µM: TGI [23]
34.7 µM: TGI [43]
5.47 µM: TGI [1]
> 31.1 µM: TGI [12]
20.5 µM: TGI [29]
23.1 µM: TGI [41]
> 84.8 µM: TGI [50]
78.3 µM: TGI [6]
> 66.1 µM: TGI [18]
16.2 µM: TGI [25]
3.42 µM: TGI [45]
45.5 µM: TGI [53]
> 100 µM: TGI [3] | TGI [4] | TGI [7] | TGI [9] | TGI [10] | TGI [11] | TGI [14] | TGI [17] | TGI [19] | TGI [22] | TGI [26] | TGI [30] | TGI [31] | TGI [34] | TGI [35] | TGI [36] | TGI [37] | TGI [39] | TGI [40] | TGI [42] | TGI [46] | TGI [47] | TGI [48] | TGI [49] | TGI [52] | TGI [54] | TGI [55] | TGI [57]
> 88.6 µM: TGI [15]
> 94.9 µM: TGI [13]
> 38.5 µM: TGI [56]
6.89 µM: TGI [20]
> 72.6 µM: TGI [38]
29.7 µM: TGI [51]
9.08 µM: TGI [32]
22.9 µM: TGI [44]
7.05 µM: TGI [2]
inactive: GI50 [1] 2.43 µM | GI50 [2] 2.64 µM | GI50 [3] 15.4 µM | GI50 [4] 8.66 µM | GI50 [5] 5.17 µM | GI50 [6] 8.05 µM | GI50 [7] 11 µM | GI50 [8] 2.39 µM | GI50 [9] 35.8 µM | GI50 [10] 2.45 µM | GI50 [11] 6.5 µM | GI50 [12] 5.59 µM | GI50 [13] 11.4 µM | GI50 [14] 4.84 µM | GI50 [15] 26.5 µM | GI50 [16] 1.27 µM | GI50 [17] 1.31 µM | GI50 [18] 3.48 µM | GI50 [19] 22.5 µM | GI50 [20] 2.47 µM | GI50 [21] 2.06 µM | GI50 [22] 4.45 µM | GI50 [23] 2.25 µM | GI50 [24] 1.92 µM | GI50 [25] 3.12 µM | GI50 [26] 3.98 µM | GI50 [27] 7.74 µM | GI50 [28] 1.92 µM | GI50 [29] 2.49 µM | GI50 [30] 21.1 µM | GI50 [31] 20.6 µM | GI50 [32] 2.95 µM | GI50 [33] 9.66 µM | GI50 [34] 3.51 µM | GI50 [35] 5.21 µM | GI50 [36] 5.05 µM | GI50 [37] 15.4 µM | GI50 [38] 25 µM | GI50 [39] 5.27 µM | GI50 [40] 4.29 µM | GI50 [41] 2.51 µM | GI50 [42] 9.71 µM | GI50 [43] 2.8 µM | GI50 [44] 2.92 µM | GI50 [45] 1.64 µM | GI50 [46] 5.9 µM | GI50 [47] 15.3 µM | GI50 [48] 20.7 µM | GI50 [49] 3.4 µM | GI50 [50] 8.49 µM | GI50 [51] 3.69 µM | GI50 [52] 39.1 µM | GI50 [53] 4.61 µM | GI50 [54] 4.38 µM | GI50 [55] 35.4 µM | GI50 [56] 3.35 µM | GI50 [57] 18.3 µM
7.99 µM: TGI [28]
98 µM: TGI [5]

COc1ccc(C2C3=C(COC3=O)Oc3cc4c(cc32)OCO4)cc1OC (stereo not drawn)
> 38 µM: TGI [10]
> 86.1 µM: TGI [11]
> 67.2 µM: TGI [9]
6.05 µM: TGI [33]
2.31 µM: TGI [42]
4.85 µM: TGI [58]
> 31.3 µM: TGI [37]
7.7 µM: TGI [32]
13 µM: TGI [17]
> 96.9 µM: TGI [14]
8.18 µM: TGI [2]
5.7 µM: TGI [39]
> 71.7 µM: TGI [20]
> 26.8 µM: TGI [19]
> 43.3 µM: TGI [36]
> 23.5 µM: TGI [38]
> 32.4 µM: TGI [7]
24 µM: TGI [41]
> 29.9 µM: TGI [27]
0.639 µM: TGI [59]
0.804 µM: TGI [13]
18.1 µM: TGI [8] | TGI [46]
0.751 µM: TGI [26]
2.19 µM: TGI [31]
> 100 µM: TGI [1] | TGI [3] | TGI [4] | TGI [6] | TGI [12] | TGI [15] | TGI [18] | TGI [21] | TGI [22] | TGI [23] | TGI [24] | TGI [25] | TGI [28] | TGI [29] | TGI [30] | TGI [34] | TGI [35] | TGI [40] | TGI [43] | TGI [44] | TGI [45] | TGI [47] | TGI [48] | TGI [49] | TGI [51] | TGI [52] | TGI [53] | TGI [54] | TGI [55] | TGI [56] | TGI [57]
6.14 µM: TGI [16]

COc1cc(C2CC(c3ccc(Cl)cc3)=NN2C(C)=O)ccc1Oc1ccnc2cc(Cl)ccc12 (stereo not drawn)
62.6 µM: TGI [15]
7.76 µM: TGI [49]
82.8 µM: TGI [43]
> 100 µM: TGI [1] | TGI [2] | TGI [5] | TGI [6] | TGI [7] | TGI [9] | TGI [58] | TGI [12] | TGI [13] | TGI [16] | TGI [18] | TGI [19] | TGI [20] | TGI [22] | TGI [23] | TGI [24] | TGI [26] | TGI [27] | TGI [35] | TGI [38] | TGI [41] | TGI [45] | TGI [47] | TGI [48] | TGI [50] | TGI [51] | TGI [52] | TGI [54] | TGI [55] | TGI [56]
inactive: GI50 [1] 2.63 µM | GI50 [2] 4.09 µM | GI50 [5] 1.4 µM | GI50 [6] > 100 µM | GI50 [7] > 100 µM | GI50 [9] > 100 µM | GI50 [58] > 100 µM | GI50 [12] > 100 µM | GI50 [13] > 100 µM | GI50 [15] 2.32 µM | GI50 [16] 2.94 µM | GI50 [18] > 100 µM | GI50 [19] > 100 µM | GI50 [20] > 100 µM | GI50 [22] > 100 µM | GI50 [23] > 100 µM | GI50 [24] > 100 µM | GI50 [26] > 100 µM | GI50 [27] > 100 µM | GI50 [35] > 100 µM | GI50 [38] > 100 µM | GI50 [39] 3.32 µM | GI50 [41] 4.22 µM | GI50 [43] 15.9 µM | GI50 [45] > 100 µM | GI50 [47] > 100 µM | GI50 [48] > 100 µM | GI50 [49] 1.66 µM | GI50 [50] > 100 µM | GI50 [51] > 100 µM | GI50 [52] 2.85 µM | GI50 [54] 3.09 µM | GI50 [55] > 100 µM | GI50 [56] > 100 µM
20.1 µM: TGI [39]
